Experimental data from patent EP4438030A1, “TERNARY ANTI-SPOT COMBINATION TO LIGHTEN SKIN” (E Grau Active Cosmetics, S.L.U., priority 2023, dated 2024).

Tested on: Normal human epidermal melanocytes
Conditions: melanocytes irradiated with ultraviolet light (2.5 J/cm2), 96 hours; mixture 0.0003% hydroxytyrosol, 0.00001% maslinic acid, 0.001% vitamin C (w/w); hydroquinone 10-8% (w/w)
Experimental: Normal human epidermal melanocytes were cultured in 48-well plates at a density of 2×10^4 cells/well overnight in a CO2 incubator at 37°C in the culture medium called Melanocyte Growth Medium (PromoCell, R.F.A.). The culture medium was then removed and replaced with fresh medium, and the cells were cultured for 96 hours in the presence of a mixture containing 0.0003% (w/w) of hydroxytyrosol, 0.00001% (w/w) of maslinic acid and 0.001% (w/w) of vitamin C. […] To mimic exposure to sunlight, the cells were irradiated with ultraviolet light for the last 48 hours in 4 cycles lasting 15 minutes. Irradiation measurements indicated a total dose of 2.5 J/cm2. Melanin was extracted by adding 1 M sodium hydroxide and incubating at 60°C for 1 h.
In parallel, a cell viability assay was carried out using 3-(4,5-dimethylthiazol-2-yl)-2,5-diphenyltetrazolium bromide dye (MTT Assay) to normalise melanin values to cell levels and thus correct possible interferences due to small variations in the number of cells in each well.

Oc1ccc(O)cc1 [hydroquinone]
reduction of melanin production: 42%
